Reference: PubChem BioAssay AID330 (DTP/NCI, 2004)
Several values for one entry are separate records, joined by “and”; a condition that tells them apart may be missing. Identical values can stand only once. Inconclusive results and toxic doses are left out.

Test system: P388 leukemia ip, CD2F1 mice, survival T/C
Assay: NCI In Vivo Anticancer Drug Screen. Data for tumor model P388 Leukemia (intraperitoneal) in CD2F1 (CDF1) mice
Conditions: endpoint: median survival time, higher = longer survival
How it was run: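 Mice carrying the transplanted tumor received test compound or vehicle. Survival was recorded in each group, and the value is the treated-group measurement divided by that of the vehicle-treated control group.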

[1] = dose: 100.0 mg/kg/injection, schedule: Q04DX003 (ip), vehicle: saline with Tween-80
[2] = dose: 200.0 mg/kg/injection, schedule: Q04DX003 (ip), vehicle: saline with Tween-80
[3] = dose: 50.0 mg/kg/injection, schedule: Q01DX005 (ip), vehicle: saline with Tween-80
[4] = dose: 100.0 mg/kg/injection, schedule: Q01DX005 (ip), vehicle: saline with Tween-80
[5] = dose: 6.25 mg/kg/injection, schedule: Q01DX009 (ip), vehicle: saline
[6] = dose: 12.5 mg/kg/injection, schedule: Q01DX009 (ip), vehicle: saline
[7] = dose: 25.0 mg/kg/injection, schedule: Q01DX009 (ip), vehicle: saline
[8] = dose: 12.5 mg/kg/injection, schedule: Q01DX009 (ip), vehicle: saline with Tween-80
[9] = dose: 25.0 mg/kg/injection, schedule: Q01DX009 (ip), vehicle: saline with Tween-80
[10] = dose: 100.0 mg/kg/injection, schedule: Q01DX009 (ip), vehicle: saline with Tween-80
[11] = dose: 200.0 mg/kg/injection, schedule: Q01DX009 (ip), vehicle: saline with Tween-80
[12] = dose: 60.0 mg/kg/injection, schedule: Q01DX005 (ip), vehicle: Klucel (hydroxypropylcellulose) (HPC)
[13] = dose: 120.0 mg/kg/injection, schedule: Q01DX005 (ip), vehicle: Klucel (hydroxypropylcellulose) (HPC)
[14] = dose: 240.0 mg/kg/injection, schedule: Q01DX005 (ip), vehicle: Klucel (hydroxypropylcellulose) (HPC)
[15] = dose: 50.0 mg/kg/injection, schedule: Q01DX009 (ip), vehicle: saline
[16] = dose: 200.0 mg/kg/injection, schedule: Q01DX009 (ip), vehicle: saline
[17] = dose: 50.0 mg/kg/injection, schedule: Q01DX005 (ip), vehicle: Klucel (hydroxypropylcellulose) (HPC)
[18] = dose: 100.0 mg/kg/injection, schedule: Q01DX005 (ip), vehicle: Klucel (hydroxypropylcellulose) (HPC)
[19] = dose: 200.0 mg/kg/injection, schedule: Q01DX005 (ip), vehicle: Klucel (hydroxypropylcellulose) (HPC)

`CCOC(OCC)c1ccc(Cl)cc1` was tested, and the T/C [1] was 100 % of control, the T/C [2] was 105 % of control and the T/C (dose: 400.0 mg/kg/injection, schedule: Q04DX003 (ip), vehicle: saline with Tween-80) was 106 % of control.
In the case of `O=[N+]([O-])c1ccc(/C=C/C=C/c2ccc(S(=O)(=O)F)cc2)c(Cl)c1`, the T/C (dose: 50.0 mg/kg/injection, schedule: Q01DX009 (ip), vehicle: Klucel (hydroxypropylcellulose) (HPC)) is reported as 93 % of control, the T/C (dose: 100.0 mg/kg/injection, schedule: Q01DX009 (ip), vehicle: Klucel (hydroxypropylcellulose) (HPC)) is reported as 93 % of control and the T/C (dose: 200.0 mg/kg/injection, schedule: Q01DX009 (ip), vehicle: Klucel (hydroxypropylcellulose) (HPC)) is reported as 97 % of control.
With `CCNc1ccc2c(c1)C(=O)N(OS(C)(=O)=O)C2=O` the T/C [3] was 97 % of control and the T/C [4] was 92 % of control.
For `CCCCCCC[N+]1(CC)CCCCC1`, the T/C [5] was 104 % of control, the T/C [6] was 106 % of control and the T/C [7] was 115 % of control.
For `Brc1ncc2[nH]cnc2n1`, the T/C [3] was 99 % of control and the T/C [4] was 100 % of control.
With `O=S1(=O)CCC2C1C1(Cl)C(Cl)=C(Cl)C2(Cl)C1(Cl)Cl` (stereo not given) the T/C [5] was 100 % of control, the T/C [6] was 100 % of control and the T/C [7] was 100 % of control.
With `CC1(C)CC(C)(OC(=O)c2ccc(Cl)cc2)N=N1` (stereo not given) the T/C [8] was 104 % of control, the T/C [9] was 103 % of control and the T/C (dose: 50.0 mg/kg/injection, schedule: Q01DX009 (ip), vehicle: saline with Tween-80) was 99 % of control. For the same compound, the T/C [10] was 99 % of control and the T/C [11] was 98 % of control.
In the case of `CCOC(=O)C1=NN(c2ccccc2)C(C(=O)OC)[C@@H]1C(=O)OC` (stereo not given in full), the T/C (dose: 60.0 mg/kg/injection, schedule: Q01DX005 (ip), vehicle: saline with Tween-80) is reported as 99 % of control, the T/C (dose: 120.0 mg/kg/injection, schedule: Q01DX005 (ip), vehicle: saline with Tween-80) is reported as 98 % of control and the T/C (dose: 240.0 mg/kg/injection, schedule: Q01DX005 (ip), vehicle: saline with Tween-80) is reported as 96 % of control.
In the case of `Nc1ncnc2c1nnn2CC(O)CO` (stereo not given), the T/C [12] is reported as 99 % of control and the T/C [13] is reported as 92 % of control.
With `[CH3][Ga]([CH3])[n]1cccn1` the T/C (dose: 3.12 mg/kg/injection, schedule: Q01DX005 (ip), vehicle: Klucel (hydroxypropylcellulose) (HPC)) was 100 % of control and the T/C (dose: 6.25 mg/kg/injection, schedule: Q01DX005 (ip), vehicle: Klucel (hydroxypropylcellulose) (HPC)) was 111 % of control.
For `CCOC(=O)c1ccc(NC(=O)Nc2cc(OC)ccc2OC)cc1`, the T/C [12] was 98 % of control, the T/C [13] was 99 % of control and the T/C [14] was 101 % of control.
In the case of `O=C1N(CCc2ccccc2)CCCS1(=O)=O`, the T/C [3] is reported as 115 % of control and the T/C [4] is reported as 117 % of control.
In the case of `C(CSC1=NCCN1)CSC1=NCCN1`, the T/C [7] is reported as 120 % of control and the T/C [15] is reported as 117 % of control.
`Cc1cc(N=Nc2ccc(N=Nc3ccc(S(=O)(=O)O)cc3)cc2)cc(C(=O)O)c1O` was tested, and the T/C [6] was 114 % of control, the T/C [7] was 113 % of control and the T/C [15] was 91 % of control and 96 % of control. For the same compound, the T/C [16] was 93 % of control.
In the case of `COc1cc2cccc(OC)c(=O)c2c(OC)c1OC`, the T/C [17] is reported as 92 % of control, the T/C [18] is reported as 100 % of control and the T/C [19] is reported as 90 % of control.
For `CN=C1c2ccccc2C(=O)c2c1c(O)n(C)c2O`, the T/C [17] was 97 % of control, the T/C [18] was 97 % of control and the T/C [19] was 106 % of control.
For `O=C1NC(=O)c2cc(C(F)(F)F)ccc21`, the T/C (dose: 3.0 mg/kg/injection, schedule: Q01DX009 (ip), vehicle: saline with Tween-80) was 95 % of control, the T/C (dose: 6.0 mg/kg/injection, schedule: Q01DX009 (ip), vehicle: saline with Tween-80) was 104 % of control and the T/C (dose: 12.0 mg/kg/injection, schedule: Q01DX009 (ip), vehicle: saline with Tween-80) was 90 % of control.
For `CCN(CC)c1cccc(Nc2nc3ccccc3s2)c1`, the T/C [12] was 97 % of control, the T/C [13] was 88 % of control and the T/C [14] was 93 % of control.
For `COc1cccc2c1C(=O)c1c(O)c3c(c(O)c1C2=O)CC(O)(C(N)=O)CC3OC1CC(N)C(O)C(C)O1` (stereo not given), the T/C (dose: 0.39 mg/kg/injection, schedule: Q01DX009 (ip), vehicle: water) was 101 % of control and the T/C (dose: 6.25 mg/kg/injection, schedule: Q01DX009 (ip), vehicle: water) was 151 % of control.
With `O=C(O)CP(=O)(O)O` the T/C (dose: 4.0 mg/kg/injection, schedule: Q01DX009 (ip), vehicle: saline) was 94 % of control, the T/C [5] was 100 % of control and the T/C (dose: 8.0 mg/kg/injection, schedule: Q01DX009 (ip), vehicle: saline) was 99 % of control. The T/C [6] was 101 % of control, the T/C (dose: 16.0 mg/kg/injection, schedule: Q01DX009 (ip), vehicle: saline) was 91 % of control and the T/C [7] was 106 % of control. For the same compound, the T/C (dose: 32.0 mg/kg/injection, schedule: Q01DX009 (ip), vehicle: saline) was 100 % of control, the T/C [15] was 103 % of control and the T/C (dose: 64.0 mg/kg/injection, schedule: Q01DX009 (ip), vehicle: saline) was 102 % of control. For the same compound, the T/C (dose: 100.0 mg/kg/injection, schedule: Q01DX009 (ip), vehicle: saline) was 103 % of control, the T/C (dose: 128.0 mg/kg/injection, schedule: Q01DX009 (ip), vehicle: saline) was 94 % of control and the T/C [16] was 106 % of control. For the same compound, the T/C (dose: 400.0 mg/kg/injection, schedule: Q01DX009 (ip), vehicle: saline) was 101 % of control and the T/C (dose: 800.0 mg/kg/injection, schedule: Q01DX009 (ip), vehicle: saline) was 106 % of control.
In the case of `ClC(Cl)(Cl)C(N1CCN(c2ccccc2)CC1)N1CCN(c2ccccc2)CC1`, the T/C [10] is reported as 101 % of control, the T/C [11] is reported as 101 % of control and the T/C (dose: 400.0 mg/kg/injection, schedule: Q01DX009 (ip), vehicle: saline with Tween-80) is reported as 106 % of control. The T/C (dose: 600.0 mg/kg/injection, schedule: Q01DX009 (ip), vehicle: saline with Tween-80) was 100 % of control.
`CN(C)CCC(=O)C(=Cc1ccc(Cl)c(Cl)c1)C(=O)CCN(C)C` was tested, and the T/C (dose: 50.0 mg/kg/injection, schedule: Q01DX005 (ip), vehicle: saline) was 104 % of control and the T/C (dose: 100.0 mg/kg/injection, schedule: Q01DX005 (ip), vehicle: saline) was 109 % of control.
With `COC(=O)C(Cc1ccccc1C#N)(OC)OC` the T/C [3] was 98 % of control, the T/C [4] was 101 % of control and the T/C (dose: 200.0 mg/kg/injection, schedule: Q01DX005 (ip), vehicle: saline with Tween-80) was 98 % of control.
In the case of `CCNc1nc(NC(C)C)nc(SC)n1`, the T/C (dose: 50.0 mg/kg/injection, schedule: Q04DX003 (ip), vehicle: saline with Tween-80) is reported as 91 % of control, the T/C [1] is reported as 100 % of control and the T/C [2] is reported as 87 % of control.
For `[NH-]CC(=O)O.[NH-]CC(=O)O.[NH-]CC(=O)O.[NH-]CC(=O)O.[Pt+4]`, the T/C (dose: 12.5 mg/kg/injection, schedule: Q01DX009 (ip), vehicle: distilled water + Tween-80) was 93 % of control, the T/C (dose: 25.0 mg/kg/injection, schedule: Q01DX009 (ip), vehicle: distilled water + Tween-80) was 94 % of control and the T/C (dose: 50.0 mg/kg/injection, schedule: Q01DX009 (ip), vehicle: distilled water + Tween-80) was 101 % of control. For the same compound, the T/C (dose: 100.0 mg/kg/injection, schedule: Q01DX009 (ip), vehicle: distilled water + Tween-80) was 104 % of control and the T/C (dose: 200.0 mg/kg/injection, schedule: Q01DX009 (ip), vehicle: distilled water + Tween-80) was 104 % of control.
In the case of `NNc1n[nH]c(=S)n1N`, the T/C (dose: 6.25 mg/kg/injection, schedule: Q01DX009 (ip), vehicle: Klucel (hydroxypropylcellulose) (HPC)) is reported as 94 % of control, the T/C (dose: 6.25 mg/kg/injection, schedule: Q01DX009 (ip), vehicle: saline with Tween-80) is reported as 109 % of control and the T/C (dose: 12.5 mg/kg/injection, schedule: Q01DX009 (ip), vehicle: Klucel (hydroxypropylcellulose) (HPC)) is reported as 94 % of control. For the same compound, the T/C [8] was 100 % of control, the T/C (dose: 25.0 mg/kg/injection, schedule: Q01DX009 (ip), vehicle: Klucel (hydroxypropylcellulose) (HPC)) was 106 % of control and the T/C [9] was 104 % of control.
